According to ChEMBL document CHEMBL4819081 (Eur J Med Chem, 2021):
The source made the active and inactive calls. The calls are words filed in the database; no cut-off is given here.

What was measured:
MDA-MB-231 [1] = experiment: Induction of cell cycle arrest in human MDA-MB-231 cells assessed as accumulation at S phase at 0.1875 uM after 12 hrs by propidium iodide staining-based flow cytometric analysis (reference value: 23.71%); format: functional
MDA-MB-231 [2] = experiment: Induction of cell cycle arrest in human MDA-MB-231 cells assessed as accumulation at S phase at 0.1875 uM after 12 hrs by propidium iodide staining-based flow cytometric analysis (reference value: 21.11%); format: functional
MDA-MB-231 [3] = experiment: Induction of cell cycle arrest in human MDA-MB-231 cells assessed as accumulation at G1 phase at 0.1875 uM after 12 hrs by propidium iodide staining-based flow cytometric analysis (reference value: 53.11%); format: functional
MDA-MB-231 [4] = experiment: Induction of cell cycle arrest in human MDA-MB-231 cells assessed as accumulation at S phase at 1.5 uM after 12 hrs by propidium iodide staining-based flow cytometric analysis (reference value: 23.71%); format: functional
CDK4/Cyclin D3 = CDK4/Cyclin D3 (Homo sapiens, UniProt P11802); experiment: Inhibition of CDK4/Cyclin D3 (unknown origin) by mobility shift assay; format: protein-complex assay
MDA-MB-453 [5] = experiment: Antiproliferative activity against human MDA-MB-453 cells assessed as reduction in cell viability after 72 hrs by MTT assay; format: functional, cell-based; settings: MDA-MB-453, 72 h
MDA-MB-231 [6] = experiment: Induction of apoptosis in human MDA-MB-231 cells assessed as early apoptotic cells at 0.625 uM after 24 hrs by Annexin-V/PI-staining based flow cytometry (reference value: 2.67%); format: functional
MDA-MB-231 [7] = experiment: Induction of cell cycle arrest in human MDA-MB-231 cells assessed as accumulation at S phase at 0.375 uM after 12 hrs by propidium iodide staining-based flow cytometric analysis (reference value: 21.11%); format: functional
L02 = experiment: Cytotoxicity against human L02 cells measured upto 20 uM after 72 hrs by MTT assay; format: cell-based; settings: l02, 72 h
[8] = biological target: Cyclin-dependent kinase 1/cyclin B1 (Homo sapiens, UniProt P06493); experiment: Inhibition of CDK1/cyclin B (unknown origin); format: protein-complex assay
[9] = biological target: Cyclin-dependent kinase 4/cyclin D1 (Homo sapiens) (UniProt P11802+P24385); experiment: Inhibition of CDK4/Cyclin D1 (unknown origin) at 200 nM using ATP by mobility shift assay; format: protein-complex assay
MDA-MB-231 [10] = experiment: Induction of cell cycle arrest in human MDA-MB-231 cells assessed as accumulation at G2 phase at 1.5 uM after 12 hrs by propidium iodide staining-based flow cytometric analysis (reference value: 21.11%); format: functional
MDA-MB-231 [11] = experiment: Potency index, ratio of IC50 for Palbociclib to IC50 for test compound for antiproliferative activity against human MDA-MB-231 cells assessed as reduction in cell viability after 72 hrs by MTT assay; format: functional
MDA-MB-231 [12] = experiment: Induction of apoptosis in human MDA-MB-231 cells assessed as late apoptotic cells at 0.625 uM after 24 hrs by Annexin-V/PI-staining based flow cytometry (reference value: 3.02%); format: functional
MDA-MB-231 [13] = experiment: Induction of apoptosis in human MDA-MB-231 cells assessed as early apoptotic cells at 1.25 uM after 24 hrs by Annexin-V/PI-staining based flow cytometry (reference value: 2.67%); format: functional
MDA-MB-231 [14] = experiment: Induction of apoptosis in human MDA-MB-231 cells assessed as late apoptotic cells at 2.5 uM after 24 hrs by Annexin-V/PI-staining based flow cytometry (reference value: 3.02%); format: functional
MDA-MB-231 [15] = experiment: Inhibition of clone formation in human MDA-MB-231 cells at 0.16 uM after 14 days by crystal violet staining based-colony formation assay; format: functional, cell-based; settings: time 14.0 day
MDA-MB-231 [16] = experiment: Induction of cell cycle arrest in human MDA-MB-231 cells assessed as accumulation at G1 phase at 1.5 uM after 12 hrs by propidium iodide staining-based flow cytometric analysis (reference value: 53.11%); format: functional
CDK7/Cyclin H/MNAT1 = CDK7/Cyclin H/MNAT1 (Homo sapiens, UniProt P50613); experiment: Inhibition of CDK7/cyclin H/MAT1 (unknown origin); format: protein-complex assay
[17] = biological target: Cyclin-dependent kinase 4/6 (Homo sapiens) (UniProt P11802+Q00534); experiment: Inhibition of CDK4/6 in human MDA-MB-231 cells assessed as reduction in Rb phosphorylation at Ser780 after 24 hrs by western blot analysis; format: cell-based; settings: dose 0.5-4 µM
[18] = biological target: Cyclin-dependent kinase 9 (Homo sapiens, UniProt P50750); experiment: Inhibition of CDK9 (unknown origin)
NCI-H1299 = experiment: Antiproliferative activity against human NCI-H1299 cells assessed as reduction in cell viability after 72 hrs by MTT assay; format: functional, cell-based; settings: NCI-H1299, 72 h
[19] = biological target: CDK6/cyclin D3 (Homo sapiens) (UniProt P30281+Q00534); experiment: Inhibition of CDK6/Cyclin D3 (unknown origin) at 200 nM using ATP by mobility shift assay; format: protein-complex assay
MDA-MB-231 [20] = experiment: Induction of cell cycle arrest in human MDA-MB-231 cells assessed as accumulation at S phase at 0.75 uM after 12 hrs by propidium iodide staining-based flow cytometric analysis (reference value: 23.71%); format: functional
MDA-MB-231 [21] = experiment: Induction of cell cycle arrest in human MDA-MB-231 cells assessed as accumulation at G1 phase at 0.375 uM after 12 hrs by propidium iodide staining-based flow cytometric analysis (reference value: 53.11%); format: functional
MDA-MB-453 [22] = experiment: Potency index, ratio of IC50 for Palbociclib to IC50 for test compound for antiproliferative activity against human MDA-MB-453 cells assessed as reduction in cell viability after 72 hrs by MTT assay; format: functional
CDK2/Cyclin A2 = CDK2/Cyclin A2 (Homo sapiens, UniProt P24941); experiment: Inhibition of CDK2/cyclin A2 (unknown origin); format: protein-complex assay
MDA-MB-231 [23] = experiment: Antiproliferative activity against human MDA-MB-231 cells assessed as reduction in cell viability after 72 hrs by MTT assay; format: functional, cell-based; settings: MDA-MB-231, 72 h
MDA-MB-231 [24] = experiment: Induction of apoptosis in human MDA-MB-231 cells assessed as early apoptotic cells at 10 uM after 24 hrs by Annexin-V/PI-staining based flow cytometry (reference value: 2.67%); format: functional
MDA-MB-231 [25] = experiment: Induction of cell cycle arrest in human MDA-MB-231 cells assessed as accumulation at G2 phase at 0.75 uM after 12 hrs by propidium iodide staining-based flow cytometric analysis (reference value: 21.11%); format: functional
MDA-MB-231 [26] = experiment: Induction of apoptosis in human MDA-MB-231 cells assessed as early apoptotic cells at 2.5 uM after 24 hrs by Annexin-V/PI-staining based flow cytometry (reference value: 2.67%); format: functional
MDA-MB-231 [27] = experiment: Antitumor activity against human MDA-MB-231 cells xenografted in BALB/c mouse assessed as tumor growth inhibition at 40 mg/kg, po measured every 3 days for 21 days; format: functional; settings: MDA-MB-231, po, 504 h, time 21 day, read-out: TGI
MDA-MB-231 [28] = experiment: Induction of apoptosis in human MDA-MB-231 cells assessed as early apoptotic cells at 5 uM after 24 hrs by Annexin-V/PI-staining based flow cytometry (reference value: 2.67%); format: functional
MDA-MB-231 [29] = experiment: Induction of cell cycle arrest in human MDA-MB-231 cells assessed as accumulation at S phase at 0.375 uM after 12 hrs by propidium iodide staining-based flow cytometric analysis (reference value: 23.71%); format: functional

Chain of Cyclin-dependent kinase 9 (P50750 whole entry): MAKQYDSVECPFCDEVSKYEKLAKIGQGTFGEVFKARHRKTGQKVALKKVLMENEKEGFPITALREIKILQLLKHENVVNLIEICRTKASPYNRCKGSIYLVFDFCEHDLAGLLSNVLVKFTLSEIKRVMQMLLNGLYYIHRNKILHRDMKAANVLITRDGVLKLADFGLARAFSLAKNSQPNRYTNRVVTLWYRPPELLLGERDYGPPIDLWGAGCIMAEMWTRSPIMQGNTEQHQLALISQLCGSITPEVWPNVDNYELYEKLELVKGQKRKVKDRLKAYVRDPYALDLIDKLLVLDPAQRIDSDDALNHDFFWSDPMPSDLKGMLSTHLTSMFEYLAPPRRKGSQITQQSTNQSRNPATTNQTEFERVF
Chain of Cyclin-dependent kinase 1/cyclin B1 (P06493 whole entry): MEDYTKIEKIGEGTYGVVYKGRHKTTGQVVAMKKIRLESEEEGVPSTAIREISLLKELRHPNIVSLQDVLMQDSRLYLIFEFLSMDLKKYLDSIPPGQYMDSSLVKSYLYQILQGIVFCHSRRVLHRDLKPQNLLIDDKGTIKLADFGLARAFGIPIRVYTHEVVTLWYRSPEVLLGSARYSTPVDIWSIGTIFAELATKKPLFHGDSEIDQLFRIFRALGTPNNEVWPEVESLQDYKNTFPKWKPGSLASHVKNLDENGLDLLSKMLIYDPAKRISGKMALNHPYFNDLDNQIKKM
Chain of Cyclin-dependent kinase 1/cyclin B1 (P14635 whole entry, further chain): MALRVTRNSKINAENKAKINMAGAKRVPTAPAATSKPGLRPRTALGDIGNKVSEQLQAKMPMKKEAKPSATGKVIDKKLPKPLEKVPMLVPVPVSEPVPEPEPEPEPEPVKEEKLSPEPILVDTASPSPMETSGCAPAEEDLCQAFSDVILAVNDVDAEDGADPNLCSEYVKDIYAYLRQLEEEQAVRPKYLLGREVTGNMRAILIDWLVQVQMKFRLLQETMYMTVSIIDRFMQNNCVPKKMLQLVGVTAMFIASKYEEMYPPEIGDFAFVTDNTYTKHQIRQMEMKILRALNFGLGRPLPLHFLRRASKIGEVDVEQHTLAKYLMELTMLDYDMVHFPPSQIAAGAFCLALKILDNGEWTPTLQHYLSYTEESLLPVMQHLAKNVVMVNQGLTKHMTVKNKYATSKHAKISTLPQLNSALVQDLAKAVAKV
Chain of CDK7/Cyclin H/MNAT1 (P51946 whole entry): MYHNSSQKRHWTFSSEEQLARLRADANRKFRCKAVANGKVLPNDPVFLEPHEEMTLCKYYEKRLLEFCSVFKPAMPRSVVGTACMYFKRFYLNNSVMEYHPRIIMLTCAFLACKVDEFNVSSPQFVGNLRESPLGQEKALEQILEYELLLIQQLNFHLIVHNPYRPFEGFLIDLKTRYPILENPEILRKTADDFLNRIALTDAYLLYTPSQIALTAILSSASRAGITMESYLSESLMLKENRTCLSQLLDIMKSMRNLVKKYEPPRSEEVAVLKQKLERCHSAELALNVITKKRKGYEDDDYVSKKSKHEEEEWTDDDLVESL
Chain of CDK7/Cyclin H/MNAT1 (P50613 whole entry): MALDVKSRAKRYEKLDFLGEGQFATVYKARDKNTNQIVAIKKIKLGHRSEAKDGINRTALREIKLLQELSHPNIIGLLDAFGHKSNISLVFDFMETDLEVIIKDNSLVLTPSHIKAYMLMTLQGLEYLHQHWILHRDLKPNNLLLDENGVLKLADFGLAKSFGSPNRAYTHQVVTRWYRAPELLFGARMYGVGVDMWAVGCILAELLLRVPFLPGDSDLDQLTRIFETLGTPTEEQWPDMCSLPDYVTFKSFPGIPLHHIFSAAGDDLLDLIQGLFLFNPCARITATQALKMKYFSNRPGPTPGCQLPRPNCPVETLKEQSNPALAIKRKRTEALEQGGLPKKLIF
Chain of CDK7/Cyclin H/MNAT1 (P51948 whole entry, further chain): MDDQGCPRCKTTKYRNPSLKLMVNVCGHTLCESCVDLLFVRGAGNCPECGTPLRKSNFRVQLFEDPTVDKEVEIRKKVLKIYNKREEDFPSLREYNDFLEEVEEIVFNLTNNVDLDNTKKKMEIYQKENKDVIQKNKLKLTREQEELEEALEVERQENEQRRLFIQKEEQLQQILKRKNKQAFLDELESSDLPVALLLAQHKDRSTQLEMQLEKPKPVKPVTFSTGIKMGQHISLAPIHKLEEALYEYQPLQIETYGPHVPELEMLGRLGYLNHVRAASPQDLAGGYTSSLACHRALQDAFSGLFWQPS
Chain of Cyclin-dependent kinase 4/6 (Homo sapiens) (P11802 whole entry, looked up): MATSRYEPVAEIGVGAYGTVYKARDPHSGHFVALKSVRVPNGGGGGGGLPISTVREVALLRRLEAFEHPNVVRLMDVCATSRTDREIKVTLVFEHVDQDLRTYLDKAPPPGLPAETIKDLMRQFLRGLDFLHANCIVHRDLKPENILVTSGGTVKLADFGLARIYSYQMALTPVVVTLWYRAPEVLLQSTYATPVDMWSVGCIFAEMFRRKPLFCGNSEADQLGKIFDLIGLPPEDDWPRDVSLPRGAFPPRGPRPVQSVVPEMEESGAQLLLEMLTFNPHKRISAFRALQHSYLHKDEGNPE
Chain of Cyclin-dependent kinase 4/6 (Homo sapiens) (Q00534 whole entry, looked up): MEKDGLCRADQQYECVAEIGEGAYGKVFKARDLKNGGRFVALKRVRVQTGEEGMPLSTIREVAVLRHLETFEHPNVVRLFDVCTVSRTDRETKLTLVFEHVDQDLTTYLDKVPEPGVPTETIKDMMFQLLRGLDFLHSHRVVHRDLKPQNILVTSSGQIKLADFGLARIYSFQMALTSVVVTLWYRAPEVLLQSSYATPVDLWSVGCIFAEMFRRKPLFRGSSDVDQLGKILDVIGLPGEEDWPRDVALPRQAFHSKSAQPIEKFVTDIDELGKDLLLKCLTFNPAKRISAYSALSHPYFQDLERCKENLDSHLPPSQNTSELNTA
Chain of CDK4/Cyclin D3 (P11802 whole entry): as the sequence (P11802 whole entry, looked up) above
Chain of CDK4/Cyclin D3 (P30281 whole entry, further chain): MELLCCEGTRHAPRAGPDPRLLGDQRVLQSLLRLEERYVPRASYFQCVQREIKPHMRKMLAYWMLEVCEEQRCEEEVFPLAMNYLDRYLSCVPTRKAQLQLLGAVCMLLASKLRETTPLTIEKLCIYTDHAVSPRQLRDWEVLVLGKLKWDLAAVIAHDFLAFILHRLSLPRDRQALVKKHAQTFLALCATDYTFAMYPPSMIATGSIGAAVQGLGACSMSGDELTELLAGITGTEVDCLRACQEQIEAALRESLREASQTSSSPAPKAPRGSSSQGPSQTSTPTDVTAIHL

Structure (SMILES): CC(=O)c1c(C)c2cnc(Nc3ccc(N4CCN(C(=O)CCl)CC4)cn3)nc2n(C2CCCC2)c1=O
- Activity (MDA-MB-231 [1]): 15.55%
- Activity (MDA-MB-231 [2]): 13.82%
- Activity (MDA-MB-231 [3]): 68.04%
- Activity (MDA-MB-231 [4]): 7.55%
- IC50 (CDK4/Cyclin D3): 6.1 nM
- IC50 (MDA-MB-453 [5]): 1750 nM
- Activity (MDA-MB-231 [6]): 4.24%
- Activity (MDA-MB-231 [7]): 14.99%
- Activity (L02): Non-Toxic
- IC50 [8]: > 10000 nM
- inhibition [9]: 93.8%
- Activity (MDA-MB-231 [10]): 19.72%
- Ratio IC50 (MDA-MB-231 [11]): 4
- Activity (MDA-MB-231 [12]): 3.82%
- Activity (MDA-MB-231 [13]): 7.72%
- Activity (MDA-MB-231 [14]): 31.65%
- inhibition (MDA-MB-231 [15]): Active
- Activity (MDA-MB-231 [16]): 71.12%
- IC50 (CDK7/Cyclin H/MNAT1): > 3330 nM
- inhibition [17]: Dose-Dependent Effect
- IC50 [18]: 1830 nM
- IC50 (NCI-H1299): 2490 nM
- inhibition [19]: 95.3%
- Activity (MDA-MB-231 [20]): 11.05%
- Activity (MDA-MB-231 [21]): 68.34%
- Ratio IC50 (MDA-MB-453 [22]): 40
- IC50 (CDK2/Cyclin A2): 7600 nM
- IC50 (MDA-MB-231 [23]): 1210 nM
- Activity (MDA-MB-231 [24]): 68.48%
- Activity (MDA-MB-231 [25]): 16.49%
- Activity (MDA-MB-231 [26]): 17.09%
- inhibition in vivo at 40 mg/kg (MDA-MB-231 [27]): 93.5%
- Activity (MDA-MB-231 [28]): 44.02%
- Activity (MDA-MB-231 [29]): 15.36%
